Here are results for 9 molecules from patent publication US10602680B2, “Method of internal seed disinfection by combining seed priming with vacuum infiltration” (priority 2014, dated 2020).

Series [1] has as its system Acidovorax avenae subsp. citrulli. In words: 10 minute soak of externally infected diploid watermelon seeds in antibiotic solutions. It counts as in vivo. As for the experimental part: The effectiveness of using an antibiotic solution combined with matrix priming for disinfecting triploid watermelon seeds internally infected with Acidovorax avenae subsp. citrulli has been tested. In order to screen for effective antibiotics, diploid watermelon seeds were obtained which were externally infected with Acidovorax avenae subsp. citrulli. […] Infected seeds were soaked for 10 minutes in antibiotic solutions of 100 ppm, 250 ppm, and 500 ppm of the above antibiotics. Dosage was chosen based on information reported by Layne Wade (21st Annual Tomato Disease Workshop, Asheville, N.C., November 2006) which stated that the MIC (minimum inhibitory concentration) of Kasugamycin on Acidovorax avenae subsp. citrulli is greater than 100 ppm.

Series [2] relates to triploid watermelon seeds. In words: Phytotoxicity screening by vacuum infiltration followed by matrix priming. As for the experimental part:
Step 110 involves choosing which species of seed will be sought to be disinfected. […] Thus, in step 130, a phytotoxicty screening is carried out on the chosen seeds using the chosen treatment. […] For example, the inventors screened the antibiotic Oxytetracycline using the method of adding chemicals to the water used in matrix priming (Eastin, J. A., 2000, U.S. Pat. No. 6,076,301) and the method of the present invention. Water containing 500 ppm of Oxytetracycline was used to prime triploid watermelon seeds using matrix priming. Further, the same seed was treated with vacuum infiltration using 500 ppm Oxytetracycline solutions for 6 hours, which was followed by a matrix priming using water. For a control, seed of the same lot was treated using vacuum infiltration with water, followed by matrix priming using water. Also, untreated seeds were preserved as an additional control.

Series [3] concerns Acidovorax avenae subsp. citrulli. The note with it: on Acidovorax avenae subsp. citrulli; reported by Layne Wade, 2006; cited from earlier work.
The test system is the same in series [4]. As to conditions: 1% solution, soak for 15 minutes; cited from earlier work.
Series [5] concerns Xanthomonas campestris pv. Campestris. In words: Osmotic priming with PEG followed by vacuum infiltration of infected broccoli seeds: presence of disease. It counts as in vivo. As to conditions: osmotic priming for 4 days followed by 6 hours of vacuum infiltration with 500 ppm. As for the experimental part:
Determination of proper length of priming treatment and vacuum filtration treatment are performed on an empirical basis. For an example, the inventors identified proper treatment length in the following manner. A lot of broccoli seeds infected with Xanthomonas campestris pv. Campestris were treated with the following treatment regiments. […] Seeds were tested after treatments for both germination and presence of the disease Xanthomonas campestris pv. Campestris.

Series [6] concerns Acidovorax avenae subsp. citrulli. The series can be described thus: 30 minute soak of infected diploid watermelon seeds, screening against the target disease. It counts as in vivo. The text has this: Substances with suitable levels of phytotoxicity are then screened for their affectivity against target diseases. For an example, the inventors screened the antibiotic piperacillin/tazobactam, and electrolyzed water for its affectivity against Acidovorax avenae subsp. citrulli on diploid watermelons seeds. […] This serves only as an example, and any method of screening can be used either in vivo or in vitro to screen for affectivity against target diseases and appropriate dose.

Where [7] appears, read: further screening using the same format, concentrations not given.

Consider `CO/N=C(\C(=O)N[C@@H]1C(=O)N2C(C(=O)O)=C(CSc3nc(=O)c(=O)[nH]n3C)CS[C@H]12)c1csc(N)n1` [Ceftriaxone sodium], for which the “elimination of bacteria on seeds” value in series [1] (any dose (100 ppm, 250 ppm, 500 ppm)) is reported as “not effective”. Further, the phytotoxicity entry in series [2] (in vivo) was “no phytotoxic effects”.
As to `O=C(N[C@H](CO)[C@H](O)c1ccc([N+](=O)[O-])cc1)C(Cl)Cl` [Chloramphenicol], the “elimination of bacteria on seeds” value in series [1] (250 ppm) and in series [1] (500 ppm) was “effective” throughout. For the same molecule, the phytotoxicity entry in series [2] (in vivo) was “phytotoxic”.
As to `C[C@H]1O[C@H](O[C@H]2[C@H](O)[C@@H](O)[C@@H](O)[C@H](O)[C@@H]2O)[C@@H](N)C[C@@H]1NC(=N)C(=O)O` [Kasugamycin], the “elimination of bacteria on seeds” value in series [1] (250 ppm) and in series [1] (500 ppm) was “effective” throughout. Moreover, in series [3], the “MIC (minimum inhibitory concentration)” value was “greater than 100 ppm”.
Take `CCn1cc(C(=O)O)c(=O)c2cc3c(cc21)OCO3` [Oxalinic acid]: the “elimination of bacteria on seeds” value in series [1] (250 ppm) and in series [1] (500 ppm) was “effective” in each case. The phytotoxicity result in series [2] (in vivo) is “phytotoxic”.
In the case of `[Ca+2].[O-]Cl.[O-]Cl` [calcium hypochlorite], in series [4], the “elimination from watermelon seeds” value is given as “not effective”.
`O=P([O-])([O-])[O-].[Na+].[Na+].[Na+]` [trisodium phosphate]: the phytotoxicity entry in series [2] (setting [7]) is given as “phytotoxic”.
As to Colistin sulphate, the “elimination of bacteria on seeds” value in series [1] (250 ppm) and in series [1] (500 ppm) was “effective” in each case. Further, the phytotoxicity entry in series [2] (setting [7]) is “mild phytotoxic effects”.
For Piperacillin/tazobactam, the “eradication of seed borne disease” value in series [5] is listed as “eradicated”. Besides, the “elimination of bacteria on seeds” value in series [1] (250 ppm) and in series [1] (500 ppm) was “effective” throughout. Moreover, the entries for the “elimination of the bacteria” value in series [6] (100 ppm) and in series [6] (250 ppm) were “not effective” and “effective”, respectively.
Regarding Trimethoprim-sulfamethoxazole, the “elimination of bacteria on seeds” value in series [1] (250 ppm) and in series [1] (500 ppm) was “effective” each time.
